# Source: patent publication US20040081624A1, “Liquid aerosol formulations and aerosol generating devices and methods for generating aerosols” (Chrysalis Technologies Incorporated, priority 2002, published 2004)
# Legend:
# Type in all cases: physicochemical
# [1] = Observation of breakdown products / degradation during aerosol generation; settings: carrier including ethanol; summary of tests
# Excerpt: Clogging of the capillary size passage of the aerosol generating device was not observed during these tests.
# [2] = Visual inspection of deposited aerosol particles (cascade impactor plates); settings: carrier containing varying percentages of ethanol in water
# Excerpt: The average MMAD of the aerosol particles was 0.66 microns.
# Albuterol aerosol particles produced using a carrier containing varying percentages of ethanol in water as described above were visually analyzed and determined to be dry aerosols.
# [3] = Aerosol particle size distribution by cascade impactor (MOUDI) of aerosol from heated capillary passage; settings: carrier 20 volume % ethanol in water
degradation [1],nature of aerosol by visual analysis [2],average MMAD of the albuterol aerosol particles [3],SMILES
no observable degradation,–,–,CCCC1O[C@@H]2C[C@H]3[C@@H]4CCC5=CC(=O)C=C[C@]5(C)[C@H]4[C@@H](O)C[C@]3(C)[C@]2(C(=O)CO)O1 (stereo partly drawn) [budesonide]
–,dry aerosols,about 3 microns,CC(C)(C)NCC(O)c1ccc(O)c(CO)c1 (stereo not drawn) [albuterol]
